Results reported in ChEMBL document CHEMBL1201862, “PubChem BioAssay data set” (2004).
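Grown in 96-well plates, cells were treated for 48 hours with each compound at five concentrations. Insufficient inhibition: endpoint recorded as highest concentration tested. The concentration for 50% growth inhibition is given as GI50.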 The source made the active and inactive calls. Rule as the data show it: active = GI50 up to about 1.1 µM and inactive = higher.

What was measured:
Assay in all cases: NCI tumour cell line growth inhibition, 48 h
[1] = tested on: SK-MEL-2
[2] = tested on: SF-539
[3] = tested on: PC-3
[4] = tested on: HCT-116
[5] = tested on: MDA-MB-231
[6] = tested on: RPMI-8226
[7] = tested on: SK-OV-3
[8] = tested on: NCI-H226
[9] = tested on: HL-60
[10] = tested on: NCI-H522
[11] = tested on: U-251
[12] = tested on: SF-268
[13] = tested on: SNB-75
[14] = tested on: HCT-15
[15] = tested on: SK-MEL-28
[16] = tested on: SF-295
[17] = tested on: CAKI-1
[18] = tested on: EKVX
[19] = tested on: MDA-MB-435
[20] = tested on: SR

Compound	GI50 [1]	GI50 [2]	GI50 [3]	GI50 [4]	GI50 [5]	GI50 [6]	GI50 [7]	GI50 [8]	GI50 [9]	GI50 [10]	GI50 [11]	GI50 [12]	GI50 [13]	GI50 [14] [µM]	GI50 [15]	GI50 [16]	GI50 [17]	GI50 [18]	GI50 [19]	GI50 [20]
Oc1ccc(Cl)cc1-c1cc(-c2ccccc2)nc(S)n1	27.2 µM (inactive)	42.6 µM (inactive)	> 100 µM (inactive)	28.8 µM (inactive)	30.5 µM (inactive)	> 100 µM (inactive)	29.5 µM (inactive)	> 100 µM (inactive)	> 100 µM (inactive)	> 100 µM (inactive)	17.4 µM (inactive)	27.3 µM (inactive)	21.5 µM (inactive)	94	> 100 µM (inactive)	28.6 µM (inactive)	> 100 µM (inactive)	4.52 µM (inactive)	> 100 µM (inactive)	–
C/C(Cc1ccc2c(c1)OCO2)=N\NC(=O)C(C)Sc1nnc(SC(C)C(=O)N/N=C(\C)Cc2ccc3c(c2)OCO3)s1 (stereo unspecified)	> 100 µM (inactive)	–	> 100 µM (inactive)	> 100 µM (inactive)	84.7 µM (inactive)	37.6 µM (inactive)	> 100 µM (inactive)	> 100 µM (inactive)	> 100 µM (inactive)	–	> 100 µM (inactive)	> 100 µM (inactive)	83.9 µM (inactive)	> 100	> 100 µM (inactive)	> 100 µM (inactive)	> 100 µM (inactive)	81.3 µM (inactive)	> 100 µM (inactive)	–
CCNc1cc2oc(=O)cc(C(F)(F)F)c2cc1C	> 100 µM (inactive)	> 100 µM (inactive)	> 100 µM (inactive)	> 100 µM (inactive)	> 100 µM (inactive)	> 100 µM (inactive)	> 100 µM (inactive)	> 100 µM (inactive)	–	> 100 µM (inactive)	> 100 µM (inactive)	> 100 µM (inactive)	27 µM (inactive)	> 100	> 100 µM (inactive)	> 100 µM (inactive)	> 100 µM (inactive)	31.3 µM (inactive)	> 100 µM (inactive)	–
CC1=CC2C(C(C)C)CC1C1C(=O)OC(=O)C21 (stereo unspecified)	> 100 µM (inactive)	> 100 µM (inactive)	76.6 µM (inactive)	76.7 µM (inactive)	> 100 µM (inactive)	–	> 100 µM (inactive)	> 100 µM (inactive)	23.3 µM (inactive)	52.7 µM (inactive)	64.1 µM (inactive)	> 100 µM (inactive)	> 100 µM (inactive)	58.2	> 100 µM (inactive)	–	–	> 100 µM (inactive)	> 100 µM (inactive)	–
CN1C(=O)C(O)CC1c1ccc(C(F)(F)F)cc1 (stereo unspecified)	> 100 µM (inactive)	> 100 µM (inactive)	> 100 µM (inactive)	> 100 µM (inactive)	> 100 µM (inactive)	> 100 µM (inactive)	> 100 µM (inactive)	> 100 µM (inactive)	> 100 µM (inactive)	> 100 µM (inactive)	> 100 µM (inactive)	> 100 µM (inactive)	> 100 µM (inactive)	> 100	> 100 µM (inactive)	> 100 µM (inactive)	> 100 µM (inactive)	> 100 µM (inactive)	> 100 µM (inactive)	–
COC(=O)CCC(NC(=O)C(C)NC(=O)COC1C(O)C(OC(=O)CCNc2c3ccccc3nc3cccc([N+](=O)[O-])c23)OC(OCc2ccccc2)C1NC(C)=O)C(N)=O (stereo unspecified)	1.93 µM (inactive)	> 10 µM (inactive)	> 10 µM (inactive)	1.64 µM (inactive)	3.48 µM (inactive)	–	> 10 µM (inactive)	> 10 µM (inactive)	–	–	9.98 µM (inactive)	7.26 µM (inactive)	> 10 µM (inactive)	3.21	–	> 10 µM (inactive)	–	> 10 µM (inactive)	3.39 µM (inactive)	–
Clc1cc(Cl)cc(C2ON=C(c3ccccc3)N2C23CC4CC(CC(C4)C2)C3)c1 (stereo unspecified)	> 10 µM (inactive)	> 10 µM (inactive)	> 10 µM (inactive)	> 10 µM (inactive)	> 10 µM (inactive)	> 10 µM (inactive)	> 10 µM (inactive)	> 10 µM (inactive)	–	> 10 µM (inactive)	> 10 µM (inactive)	> 10 µM (inactive)	> 10 µM (inactive)	> 10	> 10 µM (inactive)	> 10 µM (inactive)	> 10 µM (inactive)	> 10 µM (inactive)	> 10 µM (inactive)	–
C[C@H](CCC(=O)O)[C@H]1CC[C@H]2[C@@H]3[C@H](O)[C@H](O)[C@@H]4C[C@H](O)CC[C@]4(C)[C@H]3CC[C@]12C [HYOCHOLIC ACID]	> 100 µM (inactive)	> 100 µM (inactive)	> 100 µM (inactive)	> 100 µM (inactive)	> 100 µM (inactive)	> 100 µM (inactive)	–	> 100 µM (inactive)	> 100 µM (inactive)	> 100 µM (inactive)	> 100 µM (inactive)	> 100 µM (inactive)	> 100 µM (inactive)	> 100	> 100 µM (inactive)	–	> 100 µM (inactive)	> 100 µM (inactive)	> 100 µM (inactive)	–
CC1=NC2=Nc3nc(C)cc[n+]3CN2C=C1	> 100 µM (inactive)	> 100 µM (inactive)	> 100 µM (inactive)	38.9 µM (inactive)	54.7 µM (inactive)	19.1 µM (inactive)	> 100 µM (inactive)	> 100 µM (inactive)	–	> 100 µM (inactive)	> 100 µM (inactive)	> 100 µM (inactive)	> 100 µM (inactive)	88.5	53.1 µM (inactive)	85.5 µM (inactive)	0.144 µM (active)	30.7 µM (inactive)	40 µM (inactive)	–
CCCC(=O)OCC1(CO)C/C(=C/CC(C(C)C)C(C)C)C(=O)O1 (stereo unspecified)	> 100 µM (inactive)	–	> 100 µM (inactive)	> 100 µM (inactive)	> 100 µM (inactive)	–	> 100 µM (inactive)	> 100 µM (inactive)	–	38.7 µM (inactive)	> 100 µM (inactive)	> 100 µM (inactive)	> 100 µM (inactive)	> 100	> 100 µM (inactive)	> 100 µM (inactive)	> 100 µM (inactive)	> 100 µM (inactive)	> 100 µM (inactive)	–
CC1(C)OC(C(C)(C)O)C(C(C)(C)O)O1 (stereo unspecified)	> 100 µM (inactive)	> 100 µM (inactive)	> 100 µM (inactive)	> 100 µM (inactive)	> 100 µM (inactive)	> 100 µM (inactive)	> 100 µM (inactive)	> 100 µM (inactive)	> 100 µM (inactive)	> 100 µM (inactive)	> 100 µM (inactive)	> 100 µM (inactive)	> 100 µM (inactive)	> 100	> 100 µM (inactive)	> 100 µM (inactive)	> 100 µM (inactive)	> 100 µM (inactive)	–	> 100 µM (inactive)
